Biological target: T1, human PAH with the R408W mutation (A375 R408W cells) (Homo sapiens, UniProt P00439, R408W)
T1 construct: expressed in transfected cells
T1 sequence (P00439 1-452 R408W): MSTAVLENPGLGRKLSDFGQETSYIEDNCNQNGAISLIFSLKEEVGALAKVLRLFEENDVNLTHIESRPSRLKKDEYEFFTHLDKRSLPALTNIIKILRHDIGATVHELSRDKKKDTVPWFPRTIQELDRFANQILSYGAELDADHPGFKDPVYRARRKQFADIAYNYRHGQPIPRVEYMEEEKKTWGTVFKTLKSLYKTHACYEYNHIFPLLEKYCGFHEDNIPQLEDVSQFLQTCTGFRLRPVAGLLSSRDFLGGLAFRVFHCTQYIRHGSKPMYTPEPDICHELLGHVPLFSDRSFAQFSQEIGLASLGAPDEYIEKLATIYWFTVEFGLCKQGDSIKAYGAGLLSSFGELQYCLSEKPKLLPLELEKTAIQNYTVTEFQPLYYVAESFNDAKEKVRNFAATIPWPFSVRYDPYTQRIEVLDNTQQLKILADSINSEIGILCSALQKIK
Assay: Cell Based Phenylalanine Flux Assay
Conditions: A375 R408W cells; 24 hrs with compound, then 20 μM sepiapterin and 800 μM 13C9,15N-Phenylalanine for 4 hours; 13C-Tyrosine by LC-MS; average where tested multiple times
Method: Cells expressing R408W PAH were made by transducing A375 cells with lentivirus encoding human PAH with the R408W mutation in pLVX-Puro, then selecting with puromycin until stable cell lines were generated. A375 R408W cells were seeded into 96 well plates in DMEM+10% FBS at a density of 40,000 cells/well one hour prior to compound addition. Compounds were resuspended in DMSO, and 2-fold serial dilutions were performed to generate a 10-point dose curve. Compounds were added to plated cells in a total volume of 100 μl, and a final DMSO concentration of 0.5%. Each compound was tested in duplicate. Following compound addition, cells were placed in a 5% CO2, 37° C. tissue culture incubator for 24 hrs. After the incubation period, 20 μM sepiapterin and 800 μM 13C9,15N-Phenylalanine were added. After 4 hours, cell media was removed. An aliquot of 10 μl of cell media was combined with 200 μl of extraction buffer (80% acetonitrile/20% H2O) for each well. Determination of ^13C-Tyrosine concentration was assessed by liquid chromatography mass spectrometry.
Specific compounds disclosed herein were tested in the foregoing assay and they were determined to have an AC50 according to the following scores: (A) less than or equal to 0.500 μM, (B) greater than 0.500 and less than […], (C) greater than or equal to 1.000 and less than 5.000 μM, (D) greater than or equal to 5.000 μM, (E) no fit, and (NT) not tested, as shown below. Where a compound was tested multiple times, the average value of the tests is reported.

| Compound | AC50 |
| --- | --- |
| CC(C)(C)c1ncc(C(=O)N2CCc3[nH]cnc3[C@H]2c2nc3cc(F)ccc3o2)o1 [Example 21, (S)-(2-(tert-butyl)oxazol-5-yl)(4-(5-fluorobenzo[d]oxazol-2-yl)-6,7-dihydro-1H-imidazo[4,5-c]pyridin-5(4H)-yl)methanone] | ≤ 0.5 µM |
| Cc1cc(C(=O)N2CCc3[nH]cnc3[C@H]2c2nc3cccc(C)c3o2)n(C)n1 [Example 781, (S)-(1,3-dimethyl-1H-pyrazol-5-yl)(4-(7-methylbenzo[d]oxazol-2-yl)-6,7-dihydro-1H-imidazo[4,5-c]pyridin-5(4H)-yl)methanone] | ≤ 0.5 µM |
| Cn1cncc1-c1nc(C(F)(F)F)c(C(=O)N2CCc3[nH]cnc3[C@H]2c2nc3cc(F)ccc3o2)o1 [Example 791, (S)-(4-(5-fluorobenzo[d]oxazol-2-yl)-6,7-dihydro-1H-imidazo[4,5-c]pyridin-5(4H)-yl)(2-(1-methyl-1H-imidazol-5-yl)-4-(trifluoromethyl)oxazol-5-yl)methanone] | 0.5 to 1 µM |
| O=C(c1ocnc1CF)N1CCc2[nH]cnc2[C@@H]1c1nc2cc(F)ccc2o1 [Example 180, (R)-(4-(5-fluorobenzo[d]oxazol-2-yl)-6,7-dihydro-1H-imidazo[4,5-c]pyridin-5(4H)-yl)(4-(fluoromethyl)oxazol-5-yl)methanone] | 1 to 5 µM |
| Cc1cccc2oc([C@@H]3c4nc[nH]c4CCN3C(=O)c3ocnc3C(F)F)nc12 [Example 382, (S)-(4-(difluoromethyl)oxazol-5-yl)(4-(4-methylbenzo[d]oxazol-2-yl)-6,7-dihydro-1H-imidazo[4,5-c]pyridin-5(4H)-yl)methanone] | ≤ 0.5 µM |
| CC(C)(O)c1nc(C(F)F)c(C(=O)N2CCc3[nH]cnc3[C@@H]2c2nc3c(F)cccc3o2)o1 [Example 200, (R)-(4-(difluoromethyl)-2-(2-hydroxypropan-2-yl)oxazol-5-yl)(4-(4-fluorobenzo[d]oxazol-2-yl)-6,7-dihydro-1H-imidazo[4,5-c]pyridin-5(4H)-yl)methanone] | 1 to 5 µM |
| O=C(c1nnc(-c2ccc(F)c(F)c2)o1)N1CCc2[nH]cnc2[C@@H]1c1nc2cc(F)ccc2o1 [Example 76, (R)-(5-(3,4-difluorophenyl)-1,3,4-oxadiazol-2-yl)(4-(5-fluorobenzo[d]oxazol-2-yl)-6,7-dihydro-1H-imidazo[4,5-c]pyridin-5(4H)-yl)methanone] | 1 to 5 µM |
| O=C(c1nnc(-c2ccc(C(F)(F)F)cc2)o1)N1CCc2[nH]cnc2[C@@H]1c1nc2cc(F)ccc2o1 [Example 89, (R)-(4-(5-fluorobenzo[d]oxazol-2-yl)-6,7-dihydro-1H-imidazo[4,5-c]pyridin-5(4H)-yl)(5-(4-(trifluoromethyl)phenyl)-1,3,4-oxadiazol-2-yl)methanone] | 1 to 5 µM |
| COCc1nc(C(F)F)c(C(=O)N2CCc3[nH]cnc3[C@H]2c2nc3cc(F)ccc3o2)o1 [Example 110, (S)-(4-(difluoromethyl)-2-(methoxymethyl)oxazol-5-yl)(4-(5-fluorobenzo[d]oxazol-2-yl)-6,7-dihydro-1H-imidazo[4,5-c]pyridin-5(4H)-yl)methanone] | 0.5 to 1 µM |
| O=C(c1nnc(-c2ccccn2)o1)N1CCc2[nH]cnc2[C@@H]1c1nc2cccc(F)c2o1 [Example 336, (R)-(4-(7-fluorobenzo[d]oxazol-2-yl)-6,7-dihydro-1H-imidazo[4,5-c]pyridin-5(4H)-yl)(5-(pyridin-2-yl)-1,3,4-oxadiazol-2-yl)methanone] | 0.5 to 1 µM |
| C[C@@H](O)c1nc(C(F)F)c(C(=O)N2CCc3[nH]cnc3[C@H]2c2nc3cccc(F)c3o2)o1 [Example 245, (4-(difluoromethyl)-2-((R)-1-hydroxyethyl)oxazol-5-yl)((S)-4-(7-fluorobenzo[d]oxazol-2-yl)-6,7-dihydro-1H-imidazo[4,5-c]pyridin-5(4H)-yl)methanone] | ≤ 0.5 µM |
| Cn1cc(-c2ncc(C(=O)N3CCc4[nH]cnc4[C@H]3c3nc4cc(F)ccc4o3)s2)cn1 [Example 9, (S)-(4-(5-fluorobenzo[d]oxazol-2-yl)-6,7-dihydro-1H-imidazo[4,5-c]pyridin-5(4H)-yl)(2-(1-methyl-1H-pyrazol-4-yl)thiazol-5-yl)methanone] | ≤ 0.5 µM |
| CN1CCN(c2nc(C(F)F)c(C(=O)N3CCc4[nH]cnc4[C@H]3c3nc4cccc(F)c4o3)o2)CC1 [Example 617, (S)-(4-(difluoromethyl)-2-(4-methylpiperazin-1-yl)oxazol-5-yl)(4-(7-fluorobenzo[d]oxazol-2-yl)-6,7-dihydro-1H-imidazo[4,5-c]pyridin-5(4H)-yl)methanone] | ≤ 0.5 µM |
| Nc1cn2ncc(C(=O)N3CCc4[nH]cnc4[C@H]3c3nc4cc(F)ccc4o3)c2cc1Cl [Example 177, (S)-(6-amino-5-chloropyrazolo[1,5-a]pyridin-3-yl)(4-(5-fluorobenzo[d]oxazol-2-yl)-6,7-dihydro-1H-imidazo[4,5-c]pyridin-5(4H)-yl)methanone] | ≤ 0.5 µM |
| O=C([C@@H]1CC1(F)F)N1CCc2[nH]cnc2[C@@H]1c1nc2cc(F)ccc2o1 [Example 62, ((S)-2,2-difluorocyclopropyl)((R)-4-(5-fluorobenzo[d]oxazol-2-yl)-6,7-dihydro-1H-imidazo[4,5-c]pyridin-5(4H)-yl)methanone] | 1 to 5 µM |
| Cn1nc(C(F)F)cc1C(=O)N1CCc2[nH]cnc2[C@H]1c1nc2ccccc2o1 [Example 731, (S)-(4-(benzo[d]oxazol-2-yl)-6,7-dihydro-1H-imidazo[4,5-c]pyridin-5(4H)-yl)(3-(difluoromethyl)-1-methyl-1H-pyrazol-5-yl)methanone] | ≤ 0.5 µM |
| O=C(c1oc(C2CC2)nc1C(F)F)N1CCc2[nH]cnc2[C@H]1c1nc2cc(F)ccc2o1 [Example 53, (S)-(2-cyclopropyl-4-(difluoromethyl)oxazol-5-yl)(4-(5-fluorobenzo[d]oxazol-2-yl)-6,7-dihydro-1H-imidazo[4,5-c]pyridin-5(4H)-yl)methanone] | ≤ 0.5 µM |
| O=C(c1oc(-c2ccccn2)nc1C(F)(F)F)N1CCc2[nH]cnc2[C@H]1c1nc2cccc(F)c2o1 [Example 638, (S)-(4-(7-fluorobenzo[d]oxazol-2-yl)-6,7-dihydro-1H-imidazo[4,5-c]pyridin-5(4H)-yl)(2-(pyridin-2-yl)-4-(trifluoromethyl)oxazol-5-yl)methanone] | ≤ 0.5 µM |
| CN1CCN(c2nc(C(F)F)c(C(=O)N3CCc4[nH]cnc4[C@@H]3c3nc4cc(F)ccc4o3)o2)CC1 [Example 404, (R)-(4-(difluoromethyl)-2-(4-methylpiperazin-1-yl)oxazol-5-yl)(4-(5-fluorobenzo[d]oxazol-2-yl)-6,7-dihydro-1H-imidazo[4,5-c]pyridin-5(4H)-yl)methanone] | 1 to 5 µM |
| O=C(c1cnco1)N1CCc2[nH]cnc2[C@H]1c1nc2cccc(F)c2o1 [Example 281, (S)-(4-(7-fluorobenzo[d]oxazol-2-yl)-6,7-dihydro-1H-imidazo[4,5-c]pyridin-5(4H)-yl)(oxazol-5-yl)methanone] | 0.5 to 1 µM |
| Cn1nc(Cl)nc1C(=O)N1CCc2[nH]cnc2[C@H]1c1nc2c(F)cccc2o1 [Example 277, (S)-(3-chloro-1-methyl-1H-1,2,4-triazol-5-yl)(4-(4-fluorobenzo[d]oxazol-2-yl)-6,7-dihydro-1H-imidazo[4,5-c]pyridin-5(4H)-yl)methanone] | 0.5 to 1 µM |

Same assay, conditions: A375 cells expressing R408W PAH; 24 hrs with compound, then 20 μM sepiapterin and 800 μM 13C9,15N-Phenylalanine for 4 hours; 13C-Tyrosine by LC-MS; average where tested multiple times

| Compound | AC50 |
| --- | --- |
| Nc1cc2c(C(=O)N3CCc4[nH]cnc4C3c3nc4cc(F)ccc4o3)cnn2cc1F (stereo not shown) | 1 to 5 µM |
| Cn1nc(C(C)(C)C)cc1C(=O)N1CCc2[nH]cnc2C1c1nc2cccc(F)c2o1 (stereo not shown) | ≥ 5 µM |
| O=C(c1nnc(-c2ccc(C(F)(F)F)cn2)o1)N1CCc2[nH]cnc2C1c1nc2cc(F)ccc2o1 (stereo not shown) | 1 to 5 µM |
| O=C(c1nnc(-c2ncccc2F)o1)N1CCc2[nH]cnc2C1c1nc2cc(C(F)(F)F)ccc2o1 (stereo not shown) | 1 to 5 µM |
| CC(C)(O)c1nc(C(F)F)c(C(=O)N2CCCc3[nH]cnc3C2c2nc3cc(F)ccc3o2)o1 (stereo not shown) | 1 to 5 µM |
| O=C(C1CN(CC(F)(F)F)C1)N1CCc2[nH]cnc2C1c1nc2cc(F)ccc2o1 (stereo not shown) | 1 to 5 µM |
| CC(C)(O)c1nc(C(F)F)c(C(=O)N2CCc3[nH]cnc3C2c2nc3cc(F)c(F)cc3o2)o1 (stereo not shown) | 1 to 5 µM |

Reference: patent US20250171437A1 (Agios Pharmaceuticals,Inc., priority 2022, published 2025)
